Reference: patent US20050221328A1, “Inhibitors of inflammatory gene activity and cholesterol biosynthesis” (Wyeth, priority 2002, published 2005)
One block for each compound: values may come before it.

Legend:
[1] = tested on: hepatic inflammatory gene expression
Method: Ovariectornized C57BL/6 mice (16-20g) (Taconic) were separated into groups of 8. After 5-7 days of recuperation, the mice were fed a casein based diet (#8117, Test Diet, Richmond, IN) for five days. […] At the end of the experimental period, the liver was collected for RNA analysis.
Liver total RNA was prepared using Trizol reagent (BRL) and quantitated by real time RT-PCR using an ABI PRISM 7700 Detection System according to the manufacturer's protocol (Applied Biosystem). The data was analyzed using the Sequence Dector v1.7 software (Applied Biosystems) and normalized to GAPDH using Applied Biosystems primer set.
Feeding C57BL/6 mice a high fat diet containing cholate has been shown previously to induce inflammatory gene expression in the mouse liver after 3-5 weeks (Liao et al '93 JCI 91:2572, Evans et al. '01 Circ Res 89:823 & Miyake et al '00 JBC 275:21805).
To determine whether signaling via FXR was necessary to result in inflammatory gene expression, 1% UDCA was supplemented into the chow diet.
In particular, referring to FIG. 21a-d, C57BL/6 mice were fed either a chow, atherogenic or high fat diet (atherogenic diet without sodium cholate) as indicated. After 5 weeks, hepatic mRNA levels of the indicated genes were determined by real time PCR. […] After 5 days, hepatic mRNA levels of the indicated genes were determined by real time PCR. Data are reported as mean±SEM for each group. Referring to FIG. 23a-b: C57BL/6 mice were fed a chow diet supplemented with 1% ursodeoxycholic acid (UDCA). After 5 days, hepatic mRNA levels of the indicated genes were determined by real time PCR. […] Data are reported as mean±SEM for each group.

HepG2 cells = experiment: Gene expression in HepG2 cells treated 24 hr with CDCA or GW 4064; assay type: cell-based, human; settings: HepG2, 24 hr
Method: HepG2 cells were maintained in growth media at 37° C. in a 5% CO2 incubator. The cells were seeded in deficient growth media (phenol red free DMEM (Gibco BRL) supplemented with heat-inactivated 10% FBS, 1% Glutamax, 1% MEM non-essential amino acids, 100 U/ml penicillin and 100 μg/ml streptomycin) at 4-5×10^5 cells per well in a 6 well dish (Falcon). The cells were then placed into serum deficient media for 24 hr before addition of the compounds for an additional 24 hrs. The cells were then harvested for RNA analysis.
To further investigate the possibility that bile acid signaling through FXR can promote inflammatory gene expression, experiments were conducted in the hepatocyte cell line, HepG2. […] HepG2 cells express a number of inflammatory genes including ICAM-1 and M-CSF constitutively (Stonans et al '99 Cytokine 11:151). […] As positive controls, the induction of SHP mRNA and the repression of cyp7a were confirmed.
Referring to FIG. 24a-b, HepG2 cells were treated for 24 hr with increasing concentrations of chenodeoxycholic acid (CDCA). […] Data are reported as mean±SEM for each group. C57BL/6 mice. […] Data are reported as mean±SEM for each group.

SHP = experiment: Regulation of SHP expression in mouse liver, six weeks treatment, real time PCR; assay type: in vivo
Method: Several experiments were conducted to investigate the regulation of SHP expression, as follows. Referring to FIG. 9, ERα regulation of SHP expression in mouse liver was studied. […] Liver expression of SHP was monitored by real time PCR, with normalization for GAPDH expression. […] ICI182780 inhibited this induction.

[2] = tested on: Fnk, JAB, LIX, bcl-3 and SHP; experiment: Liver expression of Fnk, JAB, LIX, bcl-3 and SHP by realtime PCR after estrogen receptor ligand pretreatment and IL-1β; settings: mice; 100 ug/kg/day EE, 1 or 10 mg/kg/day E2, 30 mg/kg/day genistein, 5 mg/kg/day raloxifene, 10 mg/kg/day ICI182780; plus IL-1β
Method: Referring to FIG. 3a, to distinguish these two mechanisms, the IL-1β fold induction of Fnk, JAB, LIX, and bcl-3 and the IL-1β fold repression of SHP was quantified in animals pretreated with vehicle (black bars) or 100 ug/kg/day EE (grey bars). Liver RNA levels of each gene (mean +/−SEM) were determined by realtime PCR of RNA from each individual animal.
Referring to FIGS. 4a, 4b, 4c, 4d and 4e, experiments were conducted to determine whether EE blocks IL-1β induction of gene expression by an estrogen receptor (ER) dependent mechanism. Estrogens can regulate gene expression by many mechanisms including ER independent pathways such as antioxidant mechanisms. […] Liver expression levels of Fnk, JAB, LIX, bcl-3 and SHP (mean +/−SEM) were determined by realtime PCR.
Referring to FIGS. 5a, 5b, 5c, 5d, and 5e, experiments were conducted to determine whether ERα is required for EE regulation of gene expression in the liver. To determine whether ERα or ERβ mediated the EE effects on IL-1β gene expression in the liver, C57BL/6 wild type mice, C57BL/6 ERαKO mice, or 129 ERβKO mice were pretreated with vehicle (black bars) or […] EE (gray bars) for 5 days followed by a 1 hour treatment with IL-1β. Liver expression levels of Fnk, JAB, LIX, bcl-3, and SHP (mean +/−SEM) were quantified by realtime PCR, with expression in animals receiving vehicle+PBS defined as 1.0.

human SHP promoter = experiment: hSHP promoter luciferase reporter in HepG2 or 293 cells cotransfected with human ERα; assay type: cell-based; settings: 293 cells with human ERα; for SHP promoter activity, compound alone: 10 nM E2 or 1 uM compound, 24 hours
Method: Referring to FIGS. 11a and 11b, ERα regulation of hSHP promoter activity in human cells was examined. Human HepG2 or 293 cells were cotransfected with a control SV40 driven β-galactosidase plasmid, a luceriferase plasmid driven by 1.4 kb of the human SHP promoter, and an expression plasmid encoding either no protein or human ERα. […] Cell extracts were then analyzed for luciferase activity normalized for β-galactosidase activity.
Referring to FIGS. 12a, 12b, and 12c, ERα regulation of hSHP promoter activity in 293 cells was examined. Referring to FIGS. 12a and 12b, 293 cells were cotransfected with a control SV4O driven […] plasmid, a luceriferase plasmid driven by either 1.4 kb of the human SHP promoter or a synthetic 2×ERE/TK promoter, and an expression plasmid for human ERα. […] Cell extracts were then analyzed for luciferase activity with normalization for β-galaetosidase activity.

[3] = C57BL/6 mice, chow with CA 0.01-1.0%, 5 days
[4] = CDCA 1-100 uM or GW 4064 1-1000 nM

SMILES: C[C@H](CCC(=O)O)[C@H]1CC[C@H]2[C@@H]3[C@H](O)C[C@@H]4C[C@H](O)CC[C@]4(C)[C@H]3C[C@H](O)[C@]12C [CA, cholic acid]
hepatic ICAM-1 mRNA [1, 3]: dose dependent induction
induction of hepatic RANTES mRNA [1, 3]: 1.75 fold
induction of hepatic TNFα mRNA [1, 3]: 4 fold
induction of hepatic VCAM-1 mRNA [1, 3]: 3 fold
CA supplementation sufficient to induce inflammatory gene expression ([1]; chow fed mice, acute exposure): 0.3%
induction of hepatic SHP expression ([1]; mice fed 1% CA or UDCA, 5 days): only observed with CA

cyp7a expression (HepG2 cells; positive control): repression
SMILES: C[C@H](CCC(=O)O)[C@H]1CC[C@H]2[C@@H]3[C@H](O)C[C@@H]4C[C@H](O)CC[C@]4(C)[C@H]3CC[C@]12C [CDCA, chenodeoxycholic acid]
ICAM-1 expression (HepG2 cells; [4]): induced in a dose dependent manner
M-CSF expression (HepG2 cells; [4]): induced in a dose dependent manner
SHP mRNA (HepG2 cells; positive control): induction

SMILES: C[C@]12CC[C@@H]3c4ccc(O)cc4C[C@@H](CCCCCCCCC[S+]([O-])CCCC(F)(F)C(F)(F)F)[C@H]3[C@@H]1CC[C@@H]2O (stereo partly drawn) [ICI-182780]
effect on E2 induction of liver SHP mRNA (SHP; WT mice, 10 ug/kg/day E2+5 mg/kg/day ICI182780, six weeks): inhibited
effect on regulation of liver Fnk, JAB, LIX, bcl-3 and SHP expression vs IL-1β alone [2]: no effect
SHP promoter activity, compound alone (human SHP promoter): inactive alone
effect on E2 activity at SHP promoter (human SHP promoter; 1 uM compound plus 10 nM E2): antagonized

SMILES: CC/C(=C(\c1ccccc1)c1ccc(OCCN(C)C)cc1)c1ccccc1 [tamoxifen]
liver SHP mRNA levels, WT animals (SHP; ovariectomized wildtype mice, sc six weeks, 10 ug/kg/day E2, 5 mg/kg/day tamoxifen, 5 mg/kg/day PPT): induced
SHP promoter activity, compound alone (human SHP promoter): stimulated

cyp3a expression ([1]; mouse, in vivo): induced
cyp7a expression ([1]; mouse, in vivo): repress
SMILES: C[C@H](CCC(=O)O)[C@H]1CC[C@H]2[C@@H]3[C@@H](O)C[C@@H]4C[C@H](O)CC[C@]4(C)[C@H]3CC[C@]12C [UDCA, ursodeoxycholic acid]
